Source: patent publication US20250304594A1, “METHYL (R)-2-(FLUOROMETHYL)-5-OXO-4-PHENYL-4,5,6,7-TETRAHYDRO-1H-CYCLOPENTA[B]PYRIDINE-3-CARBOXYLATE AND METHYL (R)-2-(FLUOROMETHYL)-5-OXO-4-PHENYL-1,4,5,7-TETRAHYDROFURO[3,4-B]PYRIDINE-3-CARBOXYLATE AS Cav1,2 ACTIVATORS” (Novartis AG, priority 2020, published 2025)

Target: T1, human CaV1.2 (Homo sapiens, UniProt Q13936)
T1 construct: expressed in transfected cells; host or cells: Flp-In 293 T-Rex (HEK293), monoclonal CaV1.2-HEK293(AUX) clone 2-19B; doxycycline-induced auxiliary subunits
T1 sequence (Q13936 1-2138 isoform Q13936-23): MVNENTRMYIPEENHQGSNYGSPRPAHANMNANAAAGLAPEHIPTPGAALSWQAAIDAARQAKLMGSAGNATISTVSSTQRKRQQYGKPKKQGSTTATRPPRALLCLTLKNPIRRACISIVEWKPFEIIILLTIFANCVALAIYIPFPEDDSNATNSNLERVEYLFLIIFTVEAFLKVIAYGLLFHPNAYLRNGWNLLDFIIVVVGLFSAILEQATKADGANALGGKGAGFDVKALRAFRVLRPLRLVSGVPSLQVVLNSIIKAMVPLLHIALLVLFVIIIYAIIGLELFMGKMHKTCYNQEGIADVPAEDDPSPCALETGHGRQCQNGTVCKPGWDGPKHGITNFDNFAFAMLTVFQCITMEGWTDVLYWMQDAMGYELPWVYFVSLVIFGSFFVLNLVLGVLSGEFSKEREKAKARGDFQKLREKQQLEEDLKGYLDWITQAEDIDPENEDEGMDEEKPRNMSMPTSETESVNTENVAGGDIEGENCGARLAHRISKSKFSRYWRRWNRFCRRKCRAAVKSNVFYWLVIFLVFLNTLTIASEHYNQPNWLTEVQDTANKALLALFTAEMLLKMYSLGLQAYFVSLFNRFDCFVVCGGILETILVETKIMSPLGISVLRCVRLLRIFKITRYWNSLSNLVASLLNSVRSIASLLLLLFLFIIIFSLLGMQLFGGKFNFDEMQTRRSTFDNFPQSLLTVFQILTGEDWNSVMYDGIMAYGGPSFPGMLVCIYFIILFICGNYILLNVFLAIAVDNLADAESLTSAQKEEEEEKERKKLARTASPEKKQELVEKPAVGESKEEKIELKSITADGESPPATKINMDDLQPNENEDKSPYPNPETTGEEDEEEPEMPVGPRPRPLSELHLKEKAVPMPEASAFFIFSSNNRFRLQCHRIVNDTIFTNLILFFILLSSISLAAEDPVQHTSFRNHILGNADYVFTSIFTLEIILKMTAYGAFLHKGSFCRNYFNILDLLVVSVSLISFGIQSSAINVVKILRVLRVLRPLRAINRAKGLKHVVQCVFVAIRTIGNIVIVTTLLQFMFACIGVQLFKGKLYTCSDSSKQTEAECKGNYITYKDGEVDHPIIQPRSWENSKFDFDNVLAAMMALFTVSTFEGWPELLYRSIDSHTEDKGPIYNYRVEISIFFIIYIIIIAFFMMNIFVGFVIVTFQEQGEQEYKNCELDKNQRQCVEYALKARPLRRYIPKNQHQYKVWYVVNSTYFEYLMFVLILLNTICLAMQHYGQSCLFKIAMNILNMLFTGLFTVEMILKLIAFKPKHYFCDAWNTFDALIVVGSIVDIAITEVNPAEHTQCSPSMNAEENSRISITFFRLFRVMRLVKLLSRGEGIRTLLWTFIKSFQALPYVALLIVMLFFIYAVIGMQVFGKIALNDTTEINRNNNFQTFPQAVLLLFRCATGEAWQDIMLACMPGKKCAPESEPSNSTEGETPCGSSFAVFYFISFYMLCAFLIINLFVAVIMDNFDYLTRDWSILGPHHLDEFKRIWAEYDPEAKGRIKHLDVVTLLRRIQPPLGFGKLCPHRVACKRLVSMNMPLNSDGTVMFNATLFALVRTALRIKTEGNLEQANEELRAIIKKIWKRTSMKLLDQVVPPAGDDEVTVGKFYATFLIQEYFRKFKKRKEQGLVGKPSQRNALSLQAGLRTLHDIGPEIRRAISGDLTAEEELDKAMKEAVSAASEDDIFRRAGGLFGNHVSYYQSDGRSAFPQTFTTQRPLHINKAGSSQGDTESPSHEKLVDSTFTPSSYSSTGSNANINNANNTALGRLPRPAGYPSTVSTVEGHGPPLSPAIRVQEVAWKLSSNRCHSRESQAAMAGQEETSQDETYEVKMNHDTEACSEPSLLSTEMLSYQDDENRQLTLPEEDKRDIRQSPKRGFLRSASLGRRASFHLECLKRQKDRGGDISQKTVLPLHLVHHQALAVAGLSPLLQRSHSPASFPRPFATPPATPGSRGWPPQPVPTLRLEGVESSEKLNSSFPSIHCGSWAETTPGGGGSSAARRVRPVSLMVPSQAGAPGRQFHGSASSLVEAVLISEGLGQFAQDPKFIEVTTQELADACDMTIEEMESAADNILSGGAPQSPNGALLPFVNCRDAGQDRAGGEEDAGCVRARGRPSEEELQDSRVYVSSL
T1 sequence (Q9NY47 19-1001 partner limits assumed): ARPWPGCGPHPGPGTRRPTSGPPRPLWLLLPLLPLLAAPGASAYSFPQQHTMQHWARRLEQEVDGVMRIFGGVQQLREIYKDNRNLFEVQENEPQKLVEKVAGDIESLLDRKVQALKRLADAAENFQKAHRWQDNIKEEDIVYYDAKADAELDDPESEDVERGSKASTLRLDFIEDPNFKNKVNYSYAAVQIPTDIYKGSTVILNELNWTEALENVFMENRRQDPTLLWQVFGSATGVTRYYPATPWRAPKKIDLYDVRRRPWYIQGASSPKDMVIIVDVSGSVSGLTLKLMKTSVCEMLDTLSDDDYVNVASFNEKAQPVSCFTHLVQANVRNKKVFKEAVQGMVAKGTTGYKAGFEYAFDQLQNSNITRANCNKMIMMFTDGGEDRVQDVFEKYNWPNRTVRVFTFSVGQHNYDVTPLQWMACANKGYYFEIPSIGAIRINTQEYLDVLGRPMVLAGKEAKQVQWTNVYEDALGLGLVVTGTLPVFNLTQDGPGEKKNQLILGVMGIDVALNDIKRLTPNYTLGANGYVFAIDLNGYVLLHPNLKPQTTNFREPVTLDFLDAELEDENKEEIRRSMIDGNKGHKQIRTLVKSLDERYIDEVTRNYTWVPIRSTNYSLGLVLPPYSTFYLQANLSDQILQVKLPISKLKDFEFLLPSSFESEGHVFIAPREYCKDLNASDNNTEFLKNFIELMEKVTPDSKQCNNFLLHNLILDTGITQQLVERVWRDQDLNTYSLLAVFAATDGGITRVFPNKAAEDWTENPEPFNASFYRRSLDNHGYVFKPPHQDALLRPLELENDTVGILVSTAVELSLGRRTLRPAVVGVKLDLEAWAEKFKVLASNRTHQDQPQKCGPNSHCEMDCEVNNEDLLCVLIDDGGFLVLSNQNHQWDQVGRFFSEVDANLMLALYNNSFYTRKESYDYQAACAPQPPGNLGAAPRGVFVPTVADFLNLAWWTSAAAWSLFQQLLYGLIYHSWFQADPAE
T1 sequence (Q9NY47 1002-1150 partner limits assumed): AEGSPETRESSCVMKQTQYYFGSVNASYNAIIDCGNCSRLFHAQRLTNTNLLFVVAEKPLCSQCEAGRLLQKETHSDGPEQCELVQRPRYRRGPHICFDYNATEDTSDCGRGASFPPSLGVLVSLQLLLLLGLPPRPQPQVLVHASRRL
T1 sequence (Q08289 whole entry partner): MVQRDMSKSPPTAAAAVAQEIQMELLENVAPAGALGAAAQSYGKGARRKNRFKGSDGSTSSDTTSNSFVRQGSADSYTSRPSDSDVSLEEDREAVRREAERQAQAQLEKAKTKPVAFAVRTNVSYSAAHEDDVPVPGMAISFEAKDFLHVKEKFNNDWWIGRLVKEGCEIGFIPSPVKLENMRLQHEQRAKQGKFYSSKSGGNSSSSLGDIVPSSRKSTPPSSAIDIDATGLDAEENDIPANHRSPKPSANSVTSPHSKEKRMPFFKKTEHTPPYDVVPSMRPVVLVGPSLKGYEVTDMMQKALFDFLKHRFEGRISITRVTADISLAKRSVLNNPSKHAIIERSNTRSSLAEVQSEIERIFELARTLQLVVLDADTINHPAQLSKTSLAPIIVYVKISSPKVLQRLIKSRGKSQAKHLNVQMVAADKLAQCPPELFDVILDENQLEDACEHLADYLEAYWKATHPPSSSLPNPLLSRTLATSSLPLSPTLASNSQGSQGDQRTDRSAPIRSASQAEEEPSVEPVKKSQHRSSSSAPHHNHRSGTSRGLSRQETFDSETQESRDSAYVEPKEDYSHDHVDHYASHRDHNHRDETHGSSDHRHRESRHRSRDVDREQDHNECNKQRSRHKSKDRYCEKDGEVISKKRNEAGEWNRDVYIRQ
Test: QPatch channel biophysics assay (channel gating, V1/2 of activation, inactivation) in CaV1.2-HEK293(AUX) cells
Type: cell-based
Details: Table 9; shift of half-way channel activation voltage V1/2
Excerpt: The monoclonal CaV1.2-HEK293(AUX) cell line constitutively expresses human CaV1.2 alpha1C (α1C) subunit (CACNA1C) and has doxycycline-inducible expression of the alpha2delta (α2Δ2) auxiliary subunit (CACNA2D2) and beta2 (02) auxiliary subunit (CACNB2). To generate the cell line, expression vectors pcDNA5.0/FRT-TO-CACNA2D2-FCS-P2A-CACNB2 and pCMV6-entry-CACNA1C were established via gene synthesis and cloning. Here, pcDNA5.0/FRT-TO plasmid is from Invitrogen, pCMV6-entry is from Origene, FCS stands for Furin Cleavage Site, P2A is a peptide self-cleavage sequence derived from porcine teschovirus-1, and FRT is the Flippase recognition target site. Next, parental line Flp-In™ 293 T-Rex (Invitrogen) was transfected with pcDNA5.0/FRT-TO-CACNA2D2-FCS-P2A-CACNB2 and Flippase vector pOG44 (Invitrogen) to establish targeted integration of the CACNA2D2-FCS-P2A-CACNB2 expression cassette into the pre-engineered FRT site in Flp-In™ 293 T-Rex. This intermediate cell line was then transfected with pCMV6-entry-CACNA1C to establish stable CACNA1C expression. Clonal isolation was achieved under Neomycin selection. A cell clone (2-19B) with good voltage-dependent Barium current (see electrophysiology methods below) was selected for characterization of CaV1.2 activators.
24 hours prior an electrophysiology experiment, doxycycline (1 μg/ml) was added to the growth medium (Table 6), and 25 μM of verapamil was co-applied to prevent calcium influx triggered cell death. Cell confluency should reach 70%-80% right before the experiment. To harvest cells (from a T175 cm^2 flask as an example), growth media were removed completely, and the cells were rinsed with 10 mL of D-PBS. D-PBS was aspirated, and 10 mL of Detachin (Genlantis) was added and the plate was placed in a 37° C. incubator for 10 minutes. Detached cells were placed into a 15 mL conical tube and spun at 1000 rpm for 2 minutes. Supernatant was removed, and cells were re-suspended in QPatch complete media (Table 7) to desired cell density of 1.5-3 million cells per QPatch run. Each experimental run uses 1.5 mL of cells.
The cells suspension was taken to the Sophion QPatch platform that uses whole-cell voltage clamp to measure barium currents conducted through CaV1.2 on single-hole QPlates. Extracellular and intracellular patch clamp solutions are described in Tables 7 and 8, respectively. A dose-response assay protocol was used to determine the maximal fold change of peak inward current (Emax) and potency (EC50) of each compound. The protocol had eight liquid periods. The first liquid period was to stabilize current amplitude, which was monitored using repetitive 200-ms voltage pulses stepping from −80 mV to 0 mV. The second liquid period was to determine baseline current amplitude in the presence of vehicle control, using a single 20-ms voltage pulse stepping from −80 mV to 0 mV. The third through eighth liquid periods were used to ascertain a 6-dose response to compound treatments, also using single 20-ms voltage pulses stepping from −80 mV to 0 mV. The EC50 was generated using the following equation Iconcentration=Ibase+(Ifull−Ibase)*c^n/(XC50^n+c^n), where c is the concentration and n is the Hill coefficient constant. Ifull is the maximal current achievable, and Ibase is 0. A channel biophysics assay protocol was used to determine channel gating properties including current-voltage relationship (IV curves), half-way channel activation voltage (V1/2), rate of channel inactivation (tau), and amplitude of tail current. Among these, V1/2 was derived from fitting equation G(V)=Gvmin+(Gvmax−Gvmin)/(1+exp(−(V−V½)/Vslope)), where G stands for conductance, Gvmin equals 0, Gvmax is the maximal conductance, and Vslope is a slope factor. G(V) was pre-calculated from equation G(V)=I(V)/(V−0.06), for each experimentally applied depolarization potential (V) and the corresponding current amplitude (I(V)), and 0.06 in the equation was the experimentally determined reversal potential in volts. […]

SMILES	Biophysics voltage shift (mV)
COC(=O)C1=C(CF)NC2=C(C(=O)CC2)[C@H]1c1cccc(F)c1[C@@H](F)CF (single isomer, unassigned) [Example 7, methyl (R)-4-(2-((R or S)-1,2-difluoroethyl)-3-fluorophenyl)-2-(fluoromethyl)-5-oxo-4,5,6,7-tetrahydro-1H-cyclopenta[b]pyridine-3-carboxylate]	−6.3
COC(=O)C1=C(CF)NC2=C(C(=O)OC2)[C@H]1c1cc(F)cc(F)c1C1CC1 (single isomer, unassigned) [Example 13]	−0.7
COC(=O)C1=C(CF)NC2=C(C(=O)OC2)[C@H]1c1cccc(F)c1C(F)F (single isomer, unassigned) [Example 15]	−5.7
COC(=O)C1=C(CF)NC2=C(C(=O)OC2)[C@H]1c1cccc(F)c1C(F)(F)F (single isomer, unassigned) [Example 17]	−6.8
COC(=O)C1=C(CF)NC2=C(C(=O)OC2)[C@H]1c1cccc(F)c1C1CC1 (single isomer, unassigned) [Example 2]	−4.5
COC(=O)C1=C(CF)NC2=C(C(=O)OC2)[C@H]1c1cc(F)cc(F)c1[C@H]1CC1(F)F (single isomer, unassigned) [Example 3, Methyl (R)-4-(2-((R or S)-2,2-difluorocyclopropyl)-3,5-difluorophenyl)-2-(fluoromethyl)-5-oxo-1,4,5,7-tetrahydrofuro[3,4-b]pyridine-3-carboxylate]	0.1
COC(=O)C1=C(CF)NC2=C(C(=O)CC2)[C@H]1c1cccc(F)c1C1CC1 (single isomer, unassigned) [Example 28]	−7.2
COC(=O)C1=C(CF)NC2=C(C(=O)OC2)[C@H]1c1cc(F)cc(F)c1[C@H](C)F (single isomer, unassigned) [Example 5, methyl (R)-4-(3,5-difluoro-2-((R or S)-1-fluoroethyl)phenyl)-2-(fluoromethyl)-5-oxo-1,4,5,7-tetrahydrofuro[3,4-b]pyridine-3-carboxylate]	−4.6
COC(=O)C1=C(CF)NC2=C(C(=O)OC2)[C@H]1c1cc(F)cc(F)c1C(F)(F)F (single isomer, unassigned) [Example 10]	−2.3
COC(=O)C1=C(CF)NC2=C(C(=O)OC2)[C@H]1c1cccc(F)c1[C@H]1CC1(F)F (single isomer, unassigned) [Example 1, methyl (R)-4-(2-((R or S)-2,2-difluorocyclopropyl)-3-fluorophenyl)-2-(fluoromethyl)-5-oxo-1,4,5,7-tetrahydrofuro[3,4-b]pyridine-3-carboxylate]	−5.9
COC(=O)C1=C(CF)NC2=C(C(=O)OC2)[C@H]1c1cccc(F)c1[C@H](F)CF (single isomer, unassigned) [Example 6]	−6.3
COC(=O)C1=C(CF)NC2=C(C(=O)OC2)[C@H]1c1cc(F)cc(F)c1C(F)F (single isomer, unassigned) [Example 18]	−5.2
COC(=O)C1=C(CF)NC2=C(C(=O)OC2)[C@H]1c1cccc(F)c1[C@@H](C)F (single isomer, unassigned) [Example 8]	−5.4
COC(=O)C1=C(CF)NC2=C(C(=O)OC2)[C@H]1c1cc(F)cc(F)c1[C@H]1CC1(F)F (single isomer, unassigned) [Example 4, Methyl (R)-4-(2-((R or S)-2,2-difluorocyclopropyl)-3,5-difluorophenyl)-2-(fluoromethyl)-5-oxo-1,4,5,7-tetrahydrofuro[3,4-b]pyridine-3-carboxylate]	−4.4
COC(=O)C1=C(CF)NC2=C(C(=O)OC2)[C@H]1c1cc(F)cc(F)c1[C@H](F)CF (single isomer, unassigned) [Example 16, methyl (R)-4-(2-((R or S)-1,2-difluoroethyl)-3,5-difluorophenyl)-2-(fluoromethyl)-5-oxo-1,4,5,7-tetrahydrofuro[3,4-b]pyridine-3-carboxylate]	−5.8
COC(=O)C1=C(CF)NC2=C(C(=O)OC2)[C@H]1c1cccc(F)c1CC(F)F (single isomer, unassigned) [Example 11]	−5.0
COC(=O)C1=C(CF)NC2=C(C(=O)OC2)[C@H]1c1ccccc1OC(F)F (single isomer, unassigned) [Example 9]	−4.5
COC(=O)C1=C(CF)NC2=C(C(=O)OC2)[C@H]1c1cc(F)ccc1C(F)(F)F (single isomer, unassigned) [Example 23]	−6.2
